# Assay results from patent publication US6426067B1, “Angiogenic inhibitory compounds” (Biomolecular Research Institute, Ltd., priority 1996, dated 2002).
# Test system: Chorioallantioic Membrane (CAM)
# Type: in vivo
# Details: 50 μg/cam; BRI2995: surviving eggs
# Procedure: The in vivo CAM angiogenesis model, initially described by Folkman (1985) and modified by Maragoudakis et al (1988) was used. Briefly, fresh fertilized eggs were incubated for 4 days at 37° C. when a window was opened on the egg shell exposing the CAM. The window was covered with cellophane tape and the eggs were returned to the incubator until day 9 when the test compounds were applied. The test compounds were placed on sterile plastic discs (10 mm) and were allowed to dry under sterile conditions. Control discs (containing PBS) were placed on the CAM 1 cm away from the discs containing the test material. A sterile solution of cortisone acetate (100 ug/disc, Sigma) was incorporated in all discs in order to prevent an inflammatory response. The loaded and dried discs were inverted and placed on the CAM, the windows were covered and the eggs incubated until day 11 when angiogenesis was assessed.
# For morphological evaluation, eggs were treated as above. At day 11 the eggs were flooded with 10% buffered formalin (Janssen Chimica, Geel, Belguim), the plastic discs were removed and the eggs were kept at room temperature for at least 4 hours. At large area around the disc was cut off and placed on a glass slide, and the vascular density index (expressed as number of blood vessels) was measured by the method of Harris-Hooker et al (1983).
smiles,measurement,value
CO[C@@H]1[C@H](OC(=O)NC(=O)CCl)CC[C@]2(CO2)[C@H]1[C@@]1(C)O[C@@H]1CC=C(C)C [TNP-470],inhibition (reduction) of vascular density,21%±16
